Data: patent publication US20190231757A1, “COMBINATION OF SPLEEN TYROSINE KINASE INHIBITORS AND OTHER THERAPEUTIC AGENTS” (Takeda Pharmaceutical Company Limited, priority 2016, published 2019)

Tests used:
Assay type in all cases: in vivo, mouse
[1] = Body weight and tolerability, TMD8 ABT-199/gemcitabine study (Example 9); details: alone or combined with Compound A; for % BW Change (Day Maximum): Compound A 60 mg/kg PO QD 14 d, ABT-199 25 mg/kg PO QD 14 d, gemcitabine 5 mg/kg IP Q3D x4; for Number of animals removed: Compound A 60 mg/kg, ABT-199 25 mg/kg, gemcitabine 5 mg/kg
Description: (§1) Experimental design: Female CB17 SCID mice (Taconic Biosciences; weight at treatment start was about 19 g) were inoculated subcutaneously in the flank (cell suspension) with 5.0×10^6 TMD8 cells. Tumor growth was monitored with vernier calipers. Tumor volume was calculated using the formula V=W^2×L/2, where V=volume, W=width and L=length of the tumor. When the mean tumor volume reached approximately 245 mm^3, the animals were randomized into 6 treatment groups (n=8/group). […] Tumor growth and body weight were measured twice per week. Tumor growth inhibition and body weight change were calculated on Day 14 of treatment.

OCI-LY 10 xenografts = assay: Antitumor activity in CB17 SCID mice bearing OCI-LY10 xenografts, ABT-199 combination (Example 11); details: Day 21
Description: Tumor growth inhibition was calculated on Day 21 of the study. The last measurement was taken on Day 46 of the study.
(§2) Experimental design: Female CB17 SCID mice (Charles River Laboratories, about 21 g at treatment start) were inoculated subcutaneously in the flank (cell suspension) with 4.0×10^6 OCI-Ly10 cells. Tumor growth was monitored with vernier calipers. Tumor volume was calculated using the formula V=W^2×L/2, where V=volume, W=width and L=length of the tumor. When the mean tumor volume reached approximately 175 mm^3, the animals were randomized into treatment groups (n=5/group). […] Tumor growth and body weight were measured twice per week. Tumor growth inhibition and body weight change were calculated on Day 21 of treatment.
(§3) Statistical analysis: The differences in the tumor growth trends over time between pairs of treatment groups were assessed using linear mixed effects regression models. These models account for the fact that each animal was measured at multiple time points. A separate model was fit for each comparison, and the areas under the curve (AUC) for each treatment group were calculated using the predicted values from the model. The percent decrease in AUC (dAUC) relative to the reference group was then calculated. […] Further details regarding pairwise comparisons are provided in the Example 2.
(§4) Drug combinations were assessed for synergy using observed AUC values. The change in AUC relative to the control was calculated for both single agent treatment groups as well as the combination group. The interaction between the two compounds was then assessed by comparing the change in AUC observed in the combination group to the sum of the changes observed in both single agents. The results can be divided into four categories: synergistic, additive, sub-additive, and antagonistic. Further details regarding combination analyses are provided in the Example 2.
(§5) Once a final analysis was selected, the tumor measurements observed on a date pre-specified by the researcher (typically the last day of treatment) were analyzed to assess tumor growth inhibition. For this analysis, a T/C ratio was calculated for each animal by dividing the tumor measurement for the given animal by the mean tumor measurement across all control animals. The T/C ratios across a treatment group were compared to the T/C ratios of the control group using a two-tailed Welch's t-test.

[2] = Body weight and tolerability, OCI-LY10 ABT-199 study (Example 11)
Description: as §2

TMD8 DLBCL xenografts [3] = assay: Antitumor activity in CB17 SCID mice bearing TMD8 DLBCL xenografts, ABT-199 or gemcitabine combination (Example 9); details: Day 14, alone or combined with Compound A; for TGI (%): Compound A 60 mg/kg PO QD, ABT-199 25 mg/kg PO QD, gemcitabine 5 mg/kg IP Q3D x4; for Mean Tumor Volume (mm^3) ± SEM / T/C: Compound A 60 mg/kg, ABT-199 25 mg/kg, gemcitabine 5 mg/kg
Description: Tumor growth inhibition was calculated on Day 14 of the study. The last measurement was taken on Day 29 of the study.
as §1, §3, §4, §5

[4] = Body weight and tolerability, TMD8 gemcitabine study (Example 8); details: alone or combined
Description: as §1, with “was” for “was about”, “215” for “245”, “into” for “into 6”

TMD8 DLBCL xenografts [5] = assay: Antitumor activity in CB17 SCID mice bearing TMD8 DLBCL xenografts, gemcitabine combination (Example 8); details: Day 14, alone or combined
Description: Tumor growth inhibition was calculated on Day 14 of the study. The last measurement was taken on Day 40 of the study.
as §1, with “was” for “was about”, “215” for “245”, “into” for “into 6”
as §3
as §4, with “analysis” for “analyses”
as §5

[6] = Body weight and tolerability, OCI-LY10 gemcitabine study (Example 7)
Description: as §1, with “20” for “about 19”, “4.0×10^6 OCI-Ly10” for “5.0×10^6 TMD8”, “cells.” for “cells. Tumor growth was monitored with vernier calipers.”, “199” for “245”, “21” for “14”

OCI-LY10 xenografts = assay: Antitumor activity in CB17 SCID mice bearing OCI-LY10 xenografts, gemcitabine combination (Example 7); details: Day 21
Description: Tumor growth inhibition was calculated on Day 21 of the study. The last measurement was taken on Day 42 of the study.
as §1, with “20” for “about 19”, “4.0×10^6 OCI-Ly10” for “5.0×10^6 TMD8”, “cells.” for “cells. Tumor growth was monitored with vernier calipers.”, “199” for “245”, “21” for “14”
as §3, §4, §5

[7] = test system: WSU-Luc human lymphoma xenografts; assay: Antitumor activity in SCID mice bearing WSU-Luc human lymphoma xenografts, ibrutinib combination (Example 12); details: Day 20, alone or combined
Description: The study ended on Day 20 of dosing.
(§6) Tumor growth was monitored with vernier calipers. Tumor volume was calculated using the formula V=W^2×L/2, where V=volume, W=width and L=length of the tumor. When the mean tumor volume reached approximately 190 mm^3, the animals were randomized into treatment groups (n=8/group). […] Tumor growth and body weight were measured twice per week. Tumor growth inhibition and body weight change were calculated on Day 20 of treatment.
Statistical analysis: The differences in the tumor growth trends over time between pairs of treatment groups were assessed using linear mixed effects regression models. These models account for the fact that each animal was measured at multiple time points. A separate model was fit for each comparison, and the areas under the curve (AUC) for each treatment group were calculated using the predicted values from the model. The percent decrease in AUC (dAUC) relative to the reference group was then calculated.
The change in AUC relative to the control was calculated for both single agent treatment groups as well as the combination group. […] The results can be divided into four categories: synergistic, additive, sub-additive, and antagonistic.
For this analysis, a T/C ratio was calculated for each animal by dividing the tumor measurement for the given animal by the mean tumor measurement across all control animals. The T/C ratios across a treatment group were compared to the T/C ratios of the control group using a two-tailed Welch's t-test.

[8] = test system: OCI-Ly10 human DLBCL xenografts; assay: Antitumor activity in SCID mice bearing OCI-Ly10 human DLBCL xenografts, ibrutinib or bendamustine combination (Example 5); details: Day 21, Compound A 60 mg/kg PO QD, ibrutinib 6 mg/kg PO QD, bendamustine 1 mg/kg IV BIW (6 doses), alone or combined with Compound A
[9] = Body weight and tolerability, WSU-Luc ibrutinib study (Example 12); details: Compound A 60 mg/kg; ibrutinib 20 mg/kg; alone or combined
Description: as §6

[10] = test system: Ly10 human lymphoma xenografts; assay: Antitumor activity in SCID mice bearing Ly10 xenografts, rituximab combination (Example 13); details: alone or combined
[11] = test system: OCI-Ly10 human lymphoma xenografts; assay: Antitumor activity in SCID mice bearing OCI-Ly10 human lymphoma xenografts, bendamustine and rituximab (Example 6); details: Day 21; Compound A 30 mg/kg PO QD x21; bendamustine 1 mg/kg IV BIW; rituximab 1 mg/kg IV QW x3; alone or combined
[12] = test system: Ly19 human lymphoma xenografts; assay: Antitumor activity in SCID mice bearing Ly19 xenografts, rituximab combination (Example 14); details: alone or combined
[13] = ABT-199 25 mg/kg, alone or with Compound A 60 mg/kg
[14] = Compound A 60 mg/kg, ABT-199 12.5 mg/kg, alone or combined
[15] = Compound A 60 mg/kg, gemcitabine 5 mg/kg
[16] = Compound A 60 mg/kg PO QD, gemcitabine 5 mg/kg IP Q3D x4
[17] = Compound A 60 mg/kg, gemcitabine 2.5 mg/kg, alone or combined
[18] = gemcitabine 5 mg/kg, alone or with Compound A 60 mg/kg
[19] = Compound A 60 mg/kg PO QD, gemcitabine 2.5 mg/kg IP Q3D, alone or combined
[20] = gemcitabine 5 mg/kg IP Q3D, alone or with Compound A 60 mg/kg PO QD
[21] = Compound A 60 mg/kg, ibrutinib 20 mg/kg
[22] = Day 21, Compound A 60 mg/kg PO QD x21, rituximab 1 mg/kg IV QW x3
[23] = Day 14, Compound A 60 mg/kg PO QD x14, rituximab 10 mg/kg IV QW x2

CC1(C)CCC(CN2CCN(c3ccc(C(=O)NS(=O)(=O)c4ccc(NCC5CCOCC5)c([N+](=O)[O-])c4)c(Oc4cnc5[nH]ccc5c4)c3)CC2)=C(c2ccc(Cl)cc2)C1 [ABT-199, venetoclax]
% BW Change (Day Maximum) [1]: −0.4 (11) %
Number of animals removed [1]: 0
TGI (%) (OCI-LY 10 xenografts; ABT-199 25 mg/kg PO QD, alone or with Compound A 60 mg/kg PO QD): 9.2%
Mean Tumor Volume (mm^3) ± SEM (OCI-LY 10 xenografts; [13]): 950.3 ± 182.1 mm^3
T/C (OCI-LY 10 xenografts; [13]): 0.91
TGI (%) (OCI-LY 10 xenografts; Compound A 60 mg/kg PO QD, ABT-199 12.5 mg/kg PO QD, alone or combined): −0.4%
Mean Tumor Volume (mm^3) ± SEM (OCI-LY 10 xenografts; [14]): 1,050.6 ± 221.4 mm^3
T/C (OCI-LY 10 xenografts; [14]): 1.00
% BW Change (Day Maximum) ([2]; ABT-199 25 mg/kg PO QD 21 d, alone or with Compound A 60 mg/kg PO QD): −1.5 (14) %
Number of animals removed [2, 13]: 1
% BW Change (Day Maximum) ([2]; Compound A 60 mg/kg PO QD 21 d, ABT-199 12.5 mg/kg PO QD 21 d, alone or combined): 4.6 (21) %
Number of animals removed [2, 14]: 0
TGI (%) (TMD8 DLBCL xenografts [3]): 29.1%
Mean Tumor Volume (mm^3) ± SEM (TMD8 DLBCL xenografts [3]): 1,048.9 ± 136.1 mm^3
T/C (TMD8 DLBCL xenografts [3]): 0.71

Nc1ccn([C@@H]2O[C@H](CO)[C@@H](O)C2(F)F)c(=O)n1 [gemcitabine]
% BW Change (Day Maximum) [1]: −0.2 (11) %
Number of animals removed [1]: 0
% BW Change (Day Maximum) ([4]; Compound A 60 mg/kg PO QD 14 d, gemcitabine 5 mg/kg IP Q3D x4): −0.1 (4) %
Number of animals removed [4, 15]: 0
Mean Tumor Volume (mm^3) ± SEM (TMD8 DLBCL xenografts [5]; [16]): 294.7 ± 36.5 mm^3
TGI (%) (TMD8 DLBCL xenografts [5]; [16]): 67.1%
T/C (TMD8 DLBCL xenografts [5]; [15]): 0.33
% BW Change (Day Maximum) ([6]; Compound A 60 mg/kg PO QD 21 d, gemcitabine 2.5 mg/kg IP Q3D (4 doses), alone or combined): 7.5 (21) %
Number of animals removed [6, 17]: 0
% BW Change (Day Maximum) ([6]; gemcitabine 5 mg/kg IP Q3D (4 doses), alone or with Compound A 60 mg/kg PO QD): −1.4 (3) %
Number of animals removed [6, 18]: 0
TGI (%) (TMD8 DLBCL xenografts [3]): 70.3%
Mean Tumor Volume (mm^3) ± SEM (TMD8 DLBCL xenografts [3]): 440.2 ± 70.9 mm^3
T/C (TMD8 DLBCL xenografts [3]): 0.30
Mean Tumor Volume (mm^3) ± SEM (OCI-LY10 xenografts; [19]): 561.7 ± 52.5 mm^3
TGI (%) (OCI-LY10 xenografts; [19]): 52.6%
T/C (OCI-LY10 xenografts; [17]): 0.47
Mean Tumor Volume (mm^3) ± SEM (OCI-LY10 xenografts; [20]): 331.3 ± 57.6 mm^3
TGI (%) (OCI-LY10 xenografts; [20]): 72.1%
T/C (OCI-LY10 xenografts; [18]): 0.28

C=CC(=O)N1CCC[C@@H](n2nc(-c3ccc(Oc4ccccc4)cc3)c3c(N)ncnc32)C1 [ibrutinib]
TGI (%) ([7]; Compound A 60 mg/kg PO QD, ibrutinib 20 mg/kg PO QD): 0.5%
Mean Tumor Volume (mm^3) ± SEM [7, 21]: 1,085.2 ± 109.9 mm^3
T/C [7, 21]: 1.00
TGI [8]: 18%
TGI ([8]; listed as Ibrutinib): 18.0%
Number of animals removed [9]: 0

rituximab
Mean Tumor Volume (mm^3) ± SEM at Day 21 [10, 22]: 301.8 ± 30.8 mm^3
TGI (%) [10, 22]: 66.7%
dAUC ([10]; vs vehicle, Compound A 60 mg/kg, rituximab 1 mg/kg): 77.6
TGI [11]: 33.4%
Mean Tumor Volume (mm^3) ± SEM at Day 14 [12, 23]: 516.8 ± 113.3 mm^3
TGI (%) [12, 23]: 79.5%
dAUC ([12]; vs vehicle, Compound A 60 mg/kg, rituximab 10 mg/kg): 61.8
